system: TNF-α production in LPS stimulated THP-1 cells; assay: Inhibition of TNF-α production in LPS stimulated THP-1 cells (ELISA); assay type: cell-based, human; conditions: screen 1; 40 μM peptide; mean relative secretion, LPS-stimulated level without peptide = 100%, basal = 0%
Method: (§1) After 6 hours of incubation at +37° C., 5% CO2 and in a humid atmosphere, the cell supernatants were collected, centrifuged and kept frozen in −20° C. until analyzed for TNF-α content by ELISA (R&D Systems, Minneapolis, Minn., USA). The results are presented as mean relative secretion (%), with stimulated TNF-α level without peptide added set to 100% and basal secretion set to 0% (Table 2).
as §1, with “incubation,” for “incubation at +37° C., 5% CO2 and in a humid atmosphere,”, “centrifuged,” for “centrifuged”, “5).” for “2).”

Sequence | TNF-α at 40 μM peptide [%]
FQWQRNLRKLR [Peptide 135] | 103
CFQWKRAMRKVR [Peptide 123] | 156
QSLATKLFQWLRNLRKVR [Peptide 114] | 15
FQWQRPIRKVR [Peptide 137] | 137
TQPDATKCFQWQRNMRKVR [Peptide 103] | 135
SEAEKCFQWQRNMRKVR [Peptide 110] | 102
FQWQRNMRKVR [Peptide 133] | 135
FQWRPGIRKLR [Peptide 139] | 148
CFQWKRAMRKVR [Peptide 144] | 140
QSLAEKLFQWLRNRRKVR [Peptide 120] | 49
FQWQRNIRKVR [Peptide 136] | 96
QSEATKLFQWQRNLRKVR [Peptide 115] | 119
CFQWQRKMRKVR [Peptide 143] | 153
QSLAEKLFQWLRNLRKVR [Peptide 117] | 13
QSLATKCFQWQRNMRKVR [Peptide 111] | 121
QSLATKLFQWRRNLRKVR [Peptide 121] | 35
FWWQRKMRKVR [Peptide 131] | 87
FQWQPRIRKVR [Peptide 138] | 172
QSEATKCFQWLRNMRKVR [Peptide 113] | 22
FQWRRAIRKVR [Peptide 125] | 150
CFQWQKRMKRVK [Peptide 148] | 132
CLNFKRGVRKIR [Peptide 141] | 109
FQWQRNIRKIR [Peptide 134] | 109
FQWQRRIRKVR [Peptide 124] | 128
QPEATKCFQWQRNMRKVR [Peptide 104] | 132

same assay, conditions: screen 2; 4 μM peptide; mean relative secretion, stimulated = 100%, basal = 0%

Sequence | TNF-α at 4 μM peptide [%]
QSEATKRFQWLRNLRKVLGP [Peptide 213] | 110.3
QSLARTFKQWARNLRKVL [Peptide 209] | 88.0
RWCFLWRRLMRKHRRL [Peptide 240] | 78.3
QSEATKRFQWLRNLRKVLWW [Peptide 212] | 90.9
CWLWRRAMRKVW [Peptide 230] | 119.2
WCRWLRKMVKAL [Peptide 248] | 87.1
LRLWRRLMRKVW [Peptide 231] | 102.6
CFLWRRLMRKLR [Peptide 228] | 106.6
WCKLWRRLMRKVRR [Peptide 241] | 92.7
WRRWLRKMVKRL [Peptide 249] | 91.2

same assay, conditions: screen 2; 10 μM peptide; mean relative secretion, stimulated = 100%, basal = 0%

Sequence | TNF-α at 10 μM peptide [%]
QSEATKRFQWLRNLRKVLGP [Peptide 213] | 125.5
QSLARTFKQWARNLRKVL [Peptide 209] | 68.2
RWCFLWRRLMRKHRRL [Peptide 240] | 59.9
QSEATKRFQWLRNLRKVLWW [Peptide 212] | 85.8
CWLWRRAMRKVW [Peptide 230] | 135.6
WCRWLRKMVKAL [Peptide 248] | 80.2
LRLWRRLMRKVW [Peptide 231] | 89.1
CFLWRRLMRKLR [Peptide 228] | 95.4
WCKLWRRLMRKVRR [Peptide 241] | 57.9
WRRWLRKMVKRL [Peptide 249] | 78.0

same assay, conditions: screen 2; 40 μM peptide; mean relative secretion, LPS-stimulated level without peptide = 100%, basal = 0%

Sequence | TNF-α at 40 μM peptide [%]
QSEATKRFQWLRNLRKVLGP [Peptide 213] | 84.4
QSLARTFKQWARNLRKVL [Peptide 209] | 23.6
GRRRRSVQWCA [Peptide 223] | 104.4
QSEATKRFQWLRNLRKVLWW [Peptide 212] | 25.7
CWLWRRAMRKVW [Peptide 230] | 80.4
WCRWLRKMVKAL [Peptide 248] | 24.2
LRLWRRLMRKVW [Peptide 231] | 49.8
CFLWRRLMRKLR [Peptide 228] | 53.6
WRRWLRKMVKRL [Peptide 249] | −0.7

system: S. aureus (CCUG 1800); assay: Minimal microbicidal concentration (MMC99) assay, S. aureus; assay type: cell-based; conditions: screen 1; 1% BHI medium; 2 hours; 99% reduction of viable bacteria
Method: Antimicrobial Activity was Measured as Bactericidal Effect on S. aureus Using Minimal Microbicidal Concentration, MMC99, Assay)
S. aureus (#1800; CCUG, Gothenburg, Sweden) cultured on blood-agar plates [Columbia agar (Oxoid, Basingstoke, UK) supplemented with 5% defibrinated horse blood (National Veterinary Institute (SVA), Uppsala, Sweden)] were transferred to brain heart infusion broth (3.7% BHI; Difco, BD Diagnostics, Franklin Lakes, N.J., USA) and incubated in a shaker at 250 rpm+37° C. over night. The culture was thereafter be diluted 1:10 in fresh BHI broth and incubated for additional two hours to reach log-phase growth. The bacteria were pelleted and suspended in 1% BHI medium (BHI broth diluted 100 times in ultra-pure water) to a concentration of 10^7 bacteria/ml as estimated by measuring optical density at 600 nm. Peptides were serially diluted by two-fold steps from 160 μM to 1.25 μM in 1% BHI medium. The peptides (100 μl) were thereafter incubated with bacteria (5 μl á 10^7 bact./ml) for 2 hours at +37° C. Drops (5 μl) of the suspension were placed on blood agar plates. The blood agar plates were incubated over night at +37° C. The MMC99 values, i.e. the lowest peptide concentration needed to achieve a 99% reduction of viable bacteria, were recorded (Table 3). The concentration of the bacterial suspension used in the assay was confirmed by viable counts on blood agar plates.
S. aureus (#1800; CCUG, Gothenburg, Sweden) cultured on blood-agar plates [Columbia agar (Oxoid, Basingstoke, UK) supplemented with 5% defibrinated horse blood (National Veterinary Institute (SVA), Uppsala, Sweden)] were transferred to brain heart infusion broth (3.7% BHI; Difco, BD Diagnostics, Franklin Lakes, N.J., USA) and incubated in a shaker at 250 rpm+37° C. over night. The culture was thereafter be diluted 1:10 in fresh BHI broth and incubated for additional two hours to reach log-phase growth. The bacteria were pelleted and suspended in 1% BHI medium (BHI broth diluted 100 times in ultra-pure water) to a final concentration of 10^7 bacteria/ml as estimated by measuring optical density at 600 nm.
Peptides were serially diluted by two-fold steps from 400 μM to 0.78 μM in either 1% BHI medium or in 50% heat inactivated simulated wound fluid [SWF, containing 1 part 0.1% peptone (Oxoid, Basingstoke, UK) in saline and 1 part fetal bovine serum, diluted 2 times in ultra-pure water].
The peptides (100 μl) were thereafter incubated with bacteria (5 μl a 10^7 bact./ml) for 2 hours at +37° C. Drops (5 μl) of the suspension were placed on blood agar plates. The blood agar plates were incubated over night at +37° C. The MMC99 values, i.e. the lowest peptide concentration needed to achieve a 99% reduction of viable bacteria were recorded (Table 6). The concentration of the bacterial suspension used in the assay was confirmed by viable counts on blood agar plates.
The antimicrobial effects of the peptides 232 (SEQ ID NO: 78), and 220 (SEQ ID NO:67) were analysed by MMC99 (minimal microbicidal concentration) assay against S. aureus (CCUG 1800), MRSA (CCUG 41879), P. aeruginosa (ATCC 15442), E. coli (CCUG 31246), S. pyogenes (CCUG 4207), P. acnes (CCUG 1794T), S. epidermidis (ATCC12228), K. pneumoniae (ATCC 13883), A. baumannii (ATCC 19606), and C. albicans (ATCC 64549). The peptides were purchased from Biopeptide Company (San Diego, Calif., USA) and Bachem AG (Bubendorf, Switzerland) and results are presented in Table 8A and 8B respectively.
Peptides were serially diluted in two different assay medium, 1% BHI medium (brain-heart infusion medium) or 50% heat inactivated simulated wound fluid (SWF), and thereafter incubated with the microorganisms for 2 hours. Drops of the suspension were placed on blood agar plates. The MMC99 values, i.e. the lowest peptide concentration needed to achieve a 99% reduction of viable microorganisms, were recorded. As presented in Table 8, all the peptides have the ability to kill microorganisms frequently appearing in infections. […]

Sequence | MMC99 μM in 1% BHI medium [µM]
FQWQRNLRKLR [Peptide 135] | 20
CFQWKRAMRKVR [Peptide 123] | 20
QSLATKLFQWLRNLRKVR [Peptide 114] | 2.5
FQWQRPIRKVR [Peptide 137] | >160
TQPDATKCFQWQRNMRKVR [Peptide 103] | >160
SEAEKCFQWQRNMRKVR [Peptide 110] | >160
FQWQRNMRKVR [Peptide 133] | >160
FQWRPGIRKLR [Peptide 139] | 45
CFQWKRAMRKVR [Peptide 144] | 10
QSLAEKLFQWLRNRRKVR [Peptide 120] | 10
FQWQRNIRKVR [Peptide 136] | >160
QSEATKLFQWQRNLRKVR [Peptide 115] | >160
CFQWQRKMRKVR [Peptide 143] | 20
QSLAEKLFQWLRNLRKVR [Peptide 117] | 2.5
QSLATKCFQWQRNMRKVR [Peptide 111] | 20
QSLATKLFQWRRNLRKVR [Peptide 121] | 10
FWWQRKMRKVR [Peptide 131] | 5
FQWQPRIRKVR [Peptide 138] | >160
QSEATKCFQWLRNMRKVR [Peptide 113] | >160
FQWRRAIRKVR [Peptide 125] | 20
CFQWQKRMKRVK [Peptide 148] | 20
CLNFKRGVRKIR [Peptide 141] | 20
FQWQRNIRKIR [Peptide 134] | 40
FQWQRRIRKVR [Peptide 124] | 20
QPEATKCFQWQRNMRKVR [Peptide 104] | >160

same assay, conditions: screen 2; 1% BHI medium; 2 hours

Sequence | MMC99 μM in 1% BHI medium [µM]
QSEATKRFQWLRNLRKVLGP [Peptide 213] | 25
QSLARTFKQWARNLRKVL [Peptide 209] | 12.5
GRRRRSVQWCA [Peptide 223] | 25
RWCFLWRRLMRKHRRL [Peptide 240] | 12.5
QSEATKRFQWLRNLRKVLWW [Peptide 212] | 12.5
CWLWRRAMRKVW [Peptide 230] | 25
WCRWLRKMVKAL [Peptide 248] | 25
LRLWRRLMRKVW [Peptide 231] | 12.5
CFLWRRLMRKLR [Peptide 228] | 12.5
WCKLWRRLMRKVRR [Peptide 241] | 12.5
WRRWLRKMVKRL [Peptide 249] | 12.5

same assay, conditions: screen 2; 50% heat inactivated simulated wound fluid; 2 hours

Sequence | MMC99 μM in 50% SWF [µM]
QSEATKRFQWLRNLRKVLGP [Peptide 213] | 200
QSLARTFKQWARNLRKVL [Peptide 209] | 100
RWCFLWRRLMRKHRRL [Peptide 240] | 25
QSEATKRFQWLRNLRKVLWW [Peptide 212] | 100
CWLWRRAMRKVW [Peptide 230] | 100
WCRWLRKMVKAL [Peptide 248] | 50
LRLWRRLMRKVW [Peptide 231] | 50
CFLWRRLMRKLR [Peptide 228] | 50
WCKLWRRLMRKVRR [Peptide 241] | 25
WRRWLRKMVKRL [Peptide 249] | 6.25
